Measured values from US20030027867A1, “Use of R-NSAID compounds for anti-HIV treatment” (Myriad Genetics, Incorporated, priority 2001, published 2003).

How the values were obtained:
HIV-1 [1] = assay: microbe, parasite or virus in culture; settings: Human immunodeficiency virus 1, PBMC, 168 h
Description: (§1) R-flurbiprofen was supplied in powder form from Catalytica Pharmaceutical Inc., Greenville, N.C. and was solubilized in DMSO to yield a 200 mM stock solution. For these studies, the compound was tested at a high-test concentration of 1000 μM along with eight serial half-logarithmic dilutions (1000 μM down to 0.01 μM). AZT was used as a positive control antiviral compound.
(§2) Fresh human blood was obtained commercially from Interstate Blood Bank, Inc. (Memphis, Tenn.). […] The laboratory-adapted HIV-1IIIB strain was propagated and tittered in fresh human PBMCs; pre-titered aliquots of HIV-1ROJO and Hiv-1IIIB were removed from the freezer (−80° C.) and thawed rapidly to room temperature in a biological safety cabinet immediately before use. Phytohemagglutinin (PHA-P) was obtained from Sigma (St. Louis, Mo.) and recombinant IL-2 was obtained from Amgen (San Francisco, Calif.).
(§3) Fresh human PBMCs were isolated from screened donors, seronegative for HIV and HBV. Leukophoresed blood was diluted 1:1 with Dulbecco's phosphate buffered saline (PBS), layered over 14 mL of Ficoll-Hypaque density gradient in a 50 mL centrifuge tube and then centrifuged for 30 minutes at 600×g. Banded PBMCs were aspirated from the resulting interface and subsequently washed 2× with PBS by low speed centrifugation. After the final wash, cells were enumerated by trypan blue exclusion and re-suspended at 1×10^7 cells/mL in RPMI 1640 supplemented with 15% Fetal Bovine Serum (FBS), 2 mM L-glutamine, 4 μg/mL PHA-P. The cells were allowed to incubate for 48-72 hours at 37° C. After incubation, PBMCs were centrifuged and reset in RPMI 1640 with 15% FBS, 2 mM L-glutamine, 100 U/ml penicillin, 100 μg/mL streptomycin, 10 μg/mL gentamycin, and 20 U/mL recombinant human IL-2. PBMCs were maintained in this medium at a concentration of 1-2×10^6 cells/mL with biweekly medium changes until used in the assay protocol.
(§4) For the standard PBMC assay, PHA-P stimulated cells from at least two normal donors were pooled, diluted in fresh medium to a final concentration of 1×10^6 cells/mL, and plated in the interior wells of 96 well round bottom microplate at 50 μL/well (5×10^4 cells/well). Test drug dilutions were prepared at a 2× concentration in microtiter tubes and 100 μL of each concentration was placed in appropriate wells in a standard format. 50 μL of a predetermined dilution of virus stock was placed in each test well (final MOI ≈0.1). Wells with cells and virus alone were used for virus control. Separate plates were prepared identically without virus for drug cytotoxicity studies using an XTT assay system. The PBMC cultures were maintained for seven days following infection, at which time cell-free supernate samples were collected and assayed for reverse transcriptase activity as described below. […]

in vitro = assay type: cell-based; settings: human
Description: At assay termination the assay plates were stained with the soluble tetrazolium-based dye MTS (CellTiter Reagent, Promega) to determine cell viability and quantify compound toxicity. MTS is metabolized by the mitochondria enzymes of metabolically active cells to yield a soluble formazan product, allowing the rapid quantitative analysis cell viability and compound cytotoxicity. […] At termination of the assay, 20 μl of MTS reagent was added per well. The wells were incubated overnight for the HIV cytoprotection assay at 37° C. The incubation intervals were chosen based on empirically determined times for optimal dye reduction in each cell type. Adhesive plate sealers were used in place of the lids, the sealed plate was inverted several times to mix the soluble formazan product and the plate was read spectrophotometrically at 490 nm with a Molecular Devices Vmax plate reader.

HIV-1 [2] = settings: TC50/IC50 in human PBMCs
Description: as §1, §2, §3, §4

| Compound | IC50 (HIV-1 [1]) | CC50 at 7 days (in vitro) | Therapeutic Index (HIV-1 [2]) |
| --- | --- | --- | --- |
| CC(C(=O)O)c1ccc(-c2ccccc2)c(F)c1 (stereo not drawn) [R-flurbiprofen, 3-fluoro-4-phenylhydratropic acid] | 238 µM | 731 µM | 3.1 |
| Cc1cn([C@H]2C[C@H](N=[N+]=[N-])[C@@H](CO)O2)c(=O)[nH]c1=O [AZT, 3′-Azido-3′-deoxythymidine] | 0.01 µM | > 4 µM | >400.00 |
